In patent US8227601B2, “Diaryl-purines, azapurines and -deazapurines as non-nucleoside reverse transcriptase inhibitor for treatment of HIV” (priority 2005, dated 2012):
Where two headings read alike, the source gives them in different places.

Key:
Test in all cases: microbe, parasite or virus in culture
Format in all cases: cell-based, human immunodeficiency virus type 1 (HIV-1)
wild type HIV-1 = system: wild type HIV-1
HIV-1 Y181C = system: HIV-1 Y181C
HIV-1 Y188L = system: HIV-1 Y188L
HIV-1 L1001-K103N = system: HIV-1 L1001-K103N
[1] = Human immunodeficiency virus 1, Hela-JC53, read-out: EC50 WT (nM)
[2] = Human immunodeficiency virus 1, read-out: EC50 Y181C (nM), Y181C mutant
[3] = Human immunodeficiency virus 1, read-out: EC50 Y188L (nM)
[4] = Human immunodeficiency virus 1, read-out: EC50 L1001-K103N (nM), L1001-K103N mutant

SMILES	EC50 (wild type HIV-1; [1]) [nM]	EC50 (HIV-1 Y181C; [2]) [nM]	EC50 (HIV-1 Y188L; [3]) [nM]	EC50 (HIV-1 L1001-K103N; [4]) [nM]	EC50 (wild type HIV-1; read-out: EC50 WT, wild-type HIV-1) [nM]	EC50 (HIV-1 Y181C; read-out: EC50 Y181C, Y181C mutant) [nM]	EC50 (HIV-1 Y188L; read-out: EC50 Y188L, Y188L mutant) [nM]	EC50 (HIV-1 L1001-K103N; read-out: EC50 L1001-K103N, L1001-K103N mutant) [nM]
Cc1cc(C)c(Nc2nc(Nc3ccc(C#N)cc3)nc3[nH]cnc23)c(C)c1 [Cpd 23]	< 10	< 10	< 10	10 to 100	–	–	–	–
Cc1cc(C)c(Oc2nc(Nc3ccc(C#N)cc3)nc3c(Cl)cn(C)c23)c(C)c1 [Cpd 59]	10 to 100	10 to 100	10 to 100	10 to 100	–	–	–	–
CC(=O)c1cc(C)c(Oc2nc(Nc3ccc(C#N)cc3)nc3ccn(Cc4ccccc4)c23)c(C)c1 [Cpd 60]	< 10	< 10	10 to 100	10 to 100	–	–	–	–
Cc1cc(C)c(Oc2nc(Nc3ccc(C#N)cc3)nc3[nH]cc(Cl)c23)c(C)c1 [Cpd 18]	10 to 100	> 100	> 100	> 100	–	–	–	–
Cc1cc(C)c(Oc2nc(Nc3ccc(C#N)cc3)nc3ccn(C)c23)c(C)c1 [Cpd 57]	< 10	< 10	< 10	< 10	–	–	–	–
Cc1cc(C)c(Oc2nc(Nc3ccc(C(=O)O)cc3)nc3[nH]cnc23)c(C)c1 [Cpd 16]	> 100	> 100	> 100	> 100	–	–	–	–
Cc1cc(C)c(Oc2nc(Nc3ccc(C#N)cc3)nc3[nH]cnc23)c(C)c1 [Cpd 31]	–	–	–	–	< 10	10 to 100	< 10	10 to 100
Cc1cc(C#N)cc(C)c1Oc1nc(Nc2ccc(C#N)cc2)nc2ccn(C)c12 [Cpd 68]	< 10	< 10	< 10	< 10	–	–	–	–
Cc1cc(Br)cc(Cl)c1Oc1nc(Nc2ccc(C#N)cc2)nc2cc[nH]c12 [Cpd 71]	< 10	< 10	< 10	< 10	–	–	–	–
Cc1cc(C)c(Oc2nc(Nc3ccc(C#N)cc3)nc3[nH]ncc23)c(C)c1 [Cpd 7]	< 10	< 10	10 to 100	10 to 100	–	–	–	–
Cc1cc(C2CC2)cc(Cl)c1Nc1nc(Nc2ccc(C#N)cc2)nc2[nH]cnc12 [Cpd 27]	< 10	10 to 100	10 to 100	10 to 100	–	–	–	–
CCCc1nn(C)c2c(Oc3c(C)cc(C)cc3C)nc(Nc3ccc(C#N)cc3)nc12 [Cpd 43]	10 to 100	10 to 100	> 100	10 to 100	–	–	–	–
Cc1cc(C)c(Oc2nc(Nc3ccc(C#N)cc3)nc3[nH]cnc23)c(C)c1 [Cpd 5]	< 10	< 10	< 10	< 10	–	–	–	–
CCn1ccc2c(Oc3c(C)cc(C#N)cc3C)nc(Nc3ccc(C#N)cc3)nc21 [Cpd 26]	< 10	10 to 100	10 to 100	> 100	–	–	–	–
Cc1cc(C)c(Oc2nc(Nc3ccc(C4CC4)cc3)nc3[nH]cnc23)c(C)c1 [Cpd 44]	10 to 100	> 100	> 100	> 100	–	–	–	–
Cc1cc(C2CC2)cc(C)c1Oc1nc(Nc2ccc(C#N)cc2)nc2[nH]cnc12 [Cpd 19]	< 10	< 10	< 10	10 to 100	–	–	–	–
Cc1ccc2cccc(Nc3nc(Nc4ccc(C#N)cc4)nc4[nH]cnc34)c2n1 [Cpd 30]	> 100	> 100	> 100	> 100	–	–	–	–
Cc1cc(C#N)cc(C)c1Oc1nc(Nc2ccc(C#N)cc2)nc2[nH]ncc12 [Cpd 17]	< 10	10 to 100	< 10	10 to 100	–	–	–	–
Cc1cc(Br)cc(Cl)c1Oc1nc(Nc2ccc(C#N)cc2)nc2c1ccn2Cc1ccccc1 [Cpd 8]	10 to 100	> 100	> 100	> 100	–	–	–	–
Cc1cc(C#N)cc(C)c1Oc1nc(Nc2ccc(C#N)cc2)nc2[nH]ccc12 [Cpd 3]	< 10	< 10	< 10	< 10	–	–	–	–
